According to US12214076B2, “Drug delivery vehicles for atherosclerosis nanomedicine” (Northwestern University, priority 2019, dated 2025):

How the values were obtained:
[1] = test system: J774.2 murine macrophages; assay: Nitric oxide production of stimulated macrophages; type: cell-based, mouse; conditions: 24 hours, LPS and stimulated, 32 μM Ac2-26 or epitope equivalent
Method: Macrophage culture and characterization: J774.2 murine macrophages (Sigma-Aldrich) were expanded at 4-9×10^5 cells/mL in growth media consisting of Dulbecco's Modified Eagle's Medium (Sigma-Aldrich) containing 4.5 g/L glucose, 2 mM L-glutamine, 10% v/v FBS, 100 U/m penicillin, and 100 μg/mL streptomycin. Cells were passaged using Accutase™ (StemCell Technologies) and used at passage 6-9 for all experiments. The cells were detached with Accutase™ and gentle scraping, counted, and re-suspended in flow cytometry buffer containing 2% w/v bovine serum albumin (BSA, heat shock fraction free of proteases, globulin, and fatty acids, Sigma-Aldrich) and 0.1% w/v sodium azide (Sigma-Aldrich). To minimize non-specific binding of immunoglobin to Fc receptors, macrophages were incubated with anti-mouse CD16/32 antibody (TrueStain FcX™, Biolegend) at 1 μg/1×10^5 cells for 10 minutes at 4° C. APC anti-mouse CD11b antibody or APC Armenian hamster IgG isotype control antibody (Biolegend) were added at 0.4 μg/1×10^5 cells, FPR2 antibody (Novus Biologics) was added at […], and all samples were incubated for 30 minutes at 4° C. The cells were washed once with flow cytometry buffer by centrifugation at 300×g. FPR2 samples were further treated with goat anti-rabbit Alexa Fluor 488 secondary antibody (Invitrogen) at 2 μg/1×10^5 cells for 20 minutes at 4° C., followed by a wash step. Unstained macrophages served as controls and contained 7AAD viability staining solution (Biolegend) at 0.1 μg/1×10^5. All samples were suspended in 4% paraformaldehyde (Electron Microscopy Sciences) in PBS until analysis. […] All samples were analyzed using Attune NxT Acoustic Focusing Cytometer (Thermo Fisher) with at least 2000 events counted per condition.
Therapeutic effects of ApoA1-Ac2-26 PAs: 10% ROS- and MMP-Ac2-26 PAs, as well as Ac2-26 peptide were added together with 10 μg/mL LPS at 32 μM Ac2-26 to macrophages. […] Concerning the quantification of NO, the reducing solution made of KI in acetic acid and water provides an excess of I− that reacts with nitrite yielding ·NO. […]

[2] = TEM characterization of PA nanofibers for diameter and length (Example 3); type: physicochemical; conditions: 30 measurements from three images
Method: Samples at 1 mM in PBS were prepared for TEM by plating on copper supports covered with thin carbon foil 400-mesh that were treated with glow discharge. […] Due to the overlapping fibers, automated tools including FiberApp could not be used to analyze the nanofibers. Instead, the TEM images were analyzed manually for nanofiber diameter and length using ImageJ software. Cryogenic TEM of samples was also performed using a JEOL 1230 at 100 kV accelerating voltage and Gatan 831 CCD camera. […] Samples were prepared at 1 mM in PBS blotted once for 3 seconds before plunging into liquid ethane using a Vitrobot Mark III (FEI) vitrification robot.

[3] = Small angle x-ray scattering (SAXS) of PA nanofibers; type: physicochemical; conditions: 5 mM in PBS
Method: Small angle x-ray scattering (SAXS): SAXS characterization of the PA nanofibers was performed at the Advanced Photon Source in the Argonne National Laboratory on beamline 5-ID-D, DuPont-Northwestern-Dow Collaborative Access Team Synchrotron Research Center. Samples were prepared at 5 mM in PBS solution, aged at least 24 hours at 4° C., and analyzed in 1.5 mm quartz capillaries (Charles Supper) at 17 keV with a charged couple device photon detector located 245 cm behind the sample. Scattering intensities were collected using wave vector q range of 0.0024 to 0.40 Å^−1. q represents the scattering vector and is calculated as q=4π sin (θ)/λ, with θ as the scattering angle between the incident beam and detector and […] the X-ray wavelength. The plots of scattering intensity versus q were obtained using NIST software Igor Pro v8. The scattering intensities of PBS were subtracted from the PA samples using the Irena SAS macro, and the resulting plots were fitted using NCNR Analysis macro to a polydisperse core shell cylinder model.

C16-V2A2 (SEQ ID NO: 8)-E2-NH2 [Diluent PA]
macrophage activation, nitric oxide production relative to the stimulated control [1]: did not cause significant decreases in nitric oxide production
Diameter (nm) Average [2]: 12.3 nm
Diameter (nm) Median [2]: 12.4 nm
Length (nm) Average [2]: 3024.4 nm
Length (nm) Median [2]: 2541.4 nm
Diameter (nm) Average ([2]; listed as diluent): 12.3±3.1 nm
Length (nm) Median ([2]; listed as diluent): 2541 nm
SAXS slope of Guinier regime in the low q region [3]: −1
